The source made the active and inactive calls. Rule as the data show it, for most assays here: actives have a measured EC50 and inactives only a lower limit.
How the values were obtained:
[1] = target: T1, RNA-binding protein pos-1 (Caenorhabditis elegans, UniProt G5EF15); experiment: inhibitors of POS-1/mex-3 RNA binding, dose response, biochemical, fluorescence polarization (AID 1964);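 also: purified POS-1 fused to maltose binding protein made in E. coli; potency of compounds blocking POS-1 binding to fluorescent RNA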
T1 sequence (G5EF15 whole entry): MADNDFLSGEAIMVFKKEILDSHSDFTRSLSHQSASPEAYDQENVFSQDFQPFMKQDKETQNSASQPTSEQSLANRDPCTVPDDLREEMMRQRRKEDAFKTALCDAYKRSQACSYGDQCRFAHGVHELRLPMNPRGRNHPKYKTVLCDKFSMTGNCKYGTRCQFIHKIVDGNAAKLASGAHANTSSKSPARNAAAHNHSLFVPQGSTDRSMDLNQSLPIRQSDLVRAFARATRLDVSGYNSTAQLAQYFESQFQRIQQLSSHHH

[2] = target: Troponin, cardiac muscle (Homo sapiens, UniProt P19429+P45379+P63316); experiment: Fluorescence-based biochemical high throughput dose response assay for activators of the calcium sensitivity of cardiac Regulated Thin Filaments (RTF). [Related pubchem assays (depositor defined):AID493008, AID493018, AID504382, AID504383]; format: protein-complex assay
[3] = Luminescence Cell-Based Dose Response to Identify Activators of Luciferase Translation or Activity in H4-C Neuroglioblastoma Cells. [Related pubchem assays: 1829 (Project Summary), 1814 (Primary HTS)]; format: functional
[4] = Luminescence Cell-Based Dose Response to Identify Activators of 5'UTR Stem-Loop Driven Prion Protein mRNA Translation in H4-C Neuroglioblastoma Cells. [Related pubchem assays: 1829 (Project Summary), 1814 (Primary HTS)]; format: functional
[5] = target: T2, Zinc finger protein mex-5 (Caenorhabditis elegans, UniProt Q9XUB2); experiment: MEX-5/TCR-2 RNA interaction inhibitors, dose response, biochemical, C. elegans, fluorescence polarization (AID 1960)
T2 sequence (Q9XUB2 whole entry): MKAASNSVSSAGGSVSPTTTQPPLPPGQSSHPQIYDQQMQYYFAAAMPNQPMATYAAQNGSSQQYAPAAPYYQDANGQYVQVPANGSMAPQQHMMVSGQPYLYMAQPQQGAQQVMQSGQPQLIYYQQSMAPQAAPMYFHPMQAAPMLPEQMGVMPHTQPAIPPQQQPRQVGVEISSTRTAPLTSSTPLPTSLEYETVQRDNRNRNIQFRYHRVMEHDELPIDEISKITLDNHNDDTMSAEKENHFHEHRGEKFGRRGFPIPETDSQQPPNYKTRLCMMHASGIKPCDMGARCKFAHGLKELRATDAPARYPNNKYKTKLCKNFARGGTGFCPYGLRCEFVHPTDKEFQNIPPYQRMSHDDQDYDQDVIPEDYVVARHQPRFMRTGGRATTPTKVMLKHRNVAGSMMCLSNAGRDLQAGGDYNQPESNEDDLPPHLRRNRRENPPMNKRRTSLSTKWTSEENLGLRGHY

[6] = Luminescence Cell-Based Dose Confirmation to Identify Activators of 5'UTR Stem-Loop Driven Alpha-Synuclein mRNA Translation in H4 Neuroglioblastoma Cells. [Related pubchem assays: 1829 (Project Summary), 1814 (Primary HTS)]; format: functional
[7] = system: H4; experiment: Luminescence Cell-Based Dose Response HTS to Identify Activators of 5'UTR Stem-Loop Driven Prion Protein mRNA Translation in H4 Neuroglioblastoma Cells. [Related pubchem assays: 1829 (Project Summary), 1814 (Primary HTS)]; format: functional; details: Homo sapiens
[8] = Luminescence Cell-Based Dose Response HTS to Identify Activators of Luciferase Translation or Activity in H4 […] Cells. [Related pubchem assays: 1829 (Project Summary), 1814 (Primary HTS)]; format: functional
[9] = target: T3, Peroxisome proliferator-activated receptor gamma (Homo sapiens, UniProt P37231); experiment: PPARg ligand-binding domain binders, dose response, PPARg partial agonist project, biochemical, TR-FRET, LanthaScreen (AID 504446)
[10] = target: T3, Peroxisome proliferator-activated receptor gamma; experiment: PPARg partial agonists, dose response, cell-based, luminescence, assay provider (AID 504447); format: functional
[11] = target: Peroxisome proliferator-activated receptor alpha (Homo sapiens, UniProt Q07869); experiment: Late stage assay provider counterscreen for partial agonists of the peroxisome proliferator-activated receptor gamma (PPARg): Luminescence-based cell-based dose response assay for partial agonists of the peroxisome proliferator-activated receptor alpha (PPARA). [Related pubchem assays (depositor defined):AID1051, AID1300, AID1319, AID1679, AID1808, AID504446, AID504447, AID504452, AID504453, AID631]; format: functional
Sequence of Peroxisome proliferator-activated receptor alpha (Q07869 whole entry): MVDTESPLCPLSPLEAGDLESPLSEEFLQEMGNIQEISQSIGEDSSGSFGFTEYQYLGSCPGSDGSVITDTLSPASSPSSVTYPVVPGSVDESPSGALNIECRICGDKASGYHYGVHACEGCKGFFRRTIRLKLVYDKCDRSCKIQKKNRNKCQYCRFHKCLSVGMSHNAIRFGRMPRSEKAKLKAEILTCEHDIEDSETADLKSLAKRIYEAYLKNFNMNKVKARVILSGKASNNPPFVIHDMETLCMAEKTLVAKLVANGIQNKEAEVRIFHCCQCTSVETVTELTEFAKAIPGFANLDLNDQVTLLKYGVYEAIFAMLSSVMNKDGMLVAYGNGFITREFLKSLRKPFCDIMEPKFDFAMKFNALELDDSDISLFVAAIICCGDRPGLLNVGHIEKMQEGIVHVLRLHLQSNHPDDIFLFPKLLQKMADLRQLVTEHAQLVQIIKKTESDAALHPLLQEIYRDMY

T3 sequence (P37231 whole entry, the tested form may be a part): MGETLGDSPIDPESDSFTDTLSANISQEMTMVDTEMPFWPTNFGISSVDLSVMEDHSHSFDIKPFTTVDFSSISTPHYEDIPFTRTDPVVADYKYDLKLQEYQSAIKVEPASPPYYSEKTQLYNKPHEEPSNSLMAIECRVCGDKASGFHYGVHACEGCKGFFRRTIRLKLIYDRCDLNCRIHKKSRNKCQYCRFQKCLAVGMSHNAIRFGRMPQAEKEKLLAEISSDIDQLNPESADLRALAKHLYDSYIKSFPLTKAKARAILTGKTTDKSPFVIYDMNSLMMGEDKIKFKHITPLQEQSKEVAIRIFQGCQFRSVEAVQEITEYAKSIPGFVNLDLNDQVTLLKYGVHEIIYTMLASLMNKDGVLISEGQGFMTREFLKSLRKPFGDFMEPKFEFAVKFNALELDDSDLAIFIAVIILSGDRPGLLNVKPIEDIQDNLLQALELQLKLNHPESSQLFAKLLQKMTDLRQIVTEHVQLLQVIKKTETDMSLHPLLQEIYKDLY

Row | Compound | EC50 [1] | EC50 [2] | EC50 [3] | EC50 [4] | EC50 [5] | EC50 [6] | EC50 [7] | EC50 [8] | IC50 [9] | EC50 [10] | EC50 [11]
1 | CN1C(=O)/C(=C/c2ccc(N3CCCCCC3)o2)C(=O)NC1=S | > 300000 nM (not active) | 2220 nM (active) | 462 nM (active) | 325 nM (active) | > 300000 nM (inconclusive) | 206 nM (active) | 39500 nM (active) | < 100 nM (active) |  |  | 
2 | O=C(O)CCN1C(=O)/C(=C/c2ccc(F)cc2F)SC1=S |  |  |  |  |  |  |  |  | 2500 nM (active) | 1500 nM (active) | 57 nM (active)

Reference: ChEMBL document CHEMBL1201862, “PubChem BioAssay data set” (2004)
